Source: PubChem BioAssay AID1963965 (Molecular Pharmacology Branch, DTP, NCI, 2024)
Blank lines part the entries; values can stand above or below the molecule they belong to.

System: 996289-038-R-J1-PDC spheroid viability
Assay: Anticancer human tumor 996289-038-R-J1-PDC patient-derived colon adenocarcinoma cell line growth inhibition [PI3K]
Details: spheroids with HUVEC and MSC; for IC50: curve of first compound; for viability, T/C: stronger effect = lower value
Method in brief: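 Tumor cells grown as multi-cell spheroids with HUVEC endothelial cells and MSC fibroblast-like stroma were treated with targeted agents combined with inavolisib, alpelisib, duvelisib or copanlisib. Doses fell in half-log steps from near clinical Cmax, else from 10 microM. Viability was measured.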
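Also: spheroids exposed to compounds for seven days before viability read.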
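For viability, T/C in this document: luminescence used as a proxy for viable cell amount; percent viability relative to DMSO vehicle control as 100%.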

IC50 (second compound 0.0316 µM): 6.14 µM | IC50 (second compound 0.1 µM): 5.51 µM | IC50 (second compound 0.316 µM): 5.94 µM | IC50 (second compound 1 µM): 5.43 µM | IC50 (second compound 3.16 µM): 5.26 µM | IC50 (second compound 10 µM): 4.66 µM
SMILES: CC1(C)CCC(Nc2ncc(C(F)(F)F)c(-c3c[nH]c4c(P(C)(C)=O)c(C#N)ccc34)n2)CN1 (centres undefined) + CC(Nc1ncnc2nc[nH]c12)c1cc2cccc(Cl)c2c(=O)n1-c1ccccc1
viability, T/C (second compound 0.0316 µM, first compound 0.0316 µM): 95.8% | viability, T/C (second compound 0.0316 µM, first compound 0.1 µM): 84.5% | viability, T/C (second compound 0.0316 µM, first compound 0.316 µM): 85.2% | viability, T/C (second compound 0.0316 µM, first compound 1 µM): 77.9% | viability, T/C (second compound 0.0316 µM, first compound 3.16 µM): 84% | viability, T/C (second compound 0.0316 µM, first compound 10 µM): 25% | viability, T/C (second compound 0.1 µM, first compound 0.0316 µM): 88.9% | viability, T/C (second compound 0.1 µM, first compound 0.1 µM): 87.3% | viability, T/C (second compound 0.1 µM, first compound 0.316 µM): 77.9% | viability, T/C (second compound 0.1 µM, first compound 1 µM): 75.4% | viability, T/C (second compound 0.1 µM, first compound 3.16 µM): 78.1% | viability, T/C (second compound 0.1 µM, first compound 10 µM): 20.1% | viability, T/C (second compound 0.316 µM, first compound 0.0316 µM): 95.7% | viability, T/C (second compound 0.316 µM, first compound 0.1 µM): 83.8% | viability, T/C (second compound 0.316 µM, first compound 0.316 µM): 85.8% | viability, T/C (second compound 0.316 µM, first compound 1 µM): 77.9% | viability, T/C (second compound 0.316 µM, first compound 3.16 µM): 87.8% | viability, T/C (second compound 0.316 µM, first compound 10 µM): 19.9% | viability, T/C (second compound 1 µM, first compound 0.0316 µM): 88.6% | viability, T/C (second compound 1 µM, first compound 0.1 µM): 86.1% | viability, T/C (second compound 1 µM, first compound 0.316 µM): 72.8% | viability, T/C (second compound 1 µM, first compound 1 µM): 72.3% | viability, T/C (second compound 1 µM, first compound 3.16 µM): 80.3% | viability, T/C (second compound 1 µM, first compound 10 µM): 16% | viability, T/C (second compound 3.16 µM, first compound 0.0316 µM): 82.6% | viability, T/C (second compound 3.16 µM, first compound 0.1 µM): 81.3% | viability, T/C (second compound 3.16 µM, first compound 0.316 µM): 74.2% | viability, T/C (second compound 3.16 µM, first compound 1 µM): 74.4% | viability, T/C (second compound 3.16 µM, first compound 3.16 µM): 79.2% | viability, T/C (second compound 3.16 µM, first compound 10 µM): 14.2% | viability, T/C (second compound 10 µM, first compound 0.0316 µM): 90.9% | viability, T/C (second compound 10 µM, first compound 0.1 µM): 74.5% | viability, T/C (second compound 10 µM, first compound 0.316 µM): 58.3% | viability, T/C (second compound 10 µM, first compound 1 µM): 70.3% | viability, T/C (second compound 10 µM, first compound 3.16 µM): 69.8% | viability, T/C (second compound 10 µM, first compound 10 µM): 10.9%

IC50 (second compound 0.00316 µM): 0.147 µM | IC50 (second compound 0.01 µM): 0.074 µM | IC50 (second compound 0.0316 µM): 0.0496 µM | IC50 (second compound 0.1 µM): 0.0127 µM | IC50 (second compound 0.316 µM): < 0.00949 µM | IC50 (second compound 1 µM): < 0.00949 µM
SMILES: Cn1cnc2c(F)c(Nc3ccc(Br)cc3Cl)c(C(=O)NOCCO)cc21 + COc1c(OCCCN2CCOCC2)ccc2c3n(c(=NC(=O)c4cnc(N)nc4)nc12)CCN3
viability, T/C (second compound 0.00316 µM, first compound 0.00949 µM): 85.8% | viability, T/C (second compound 0.00316 µM, first compound 0.03 µM): 64.4% | viability, T/C (second compound 0.00316 µM, first compound 0.0949 µM): 62.2% | viability, T/C (second compound 0.00316 µM, first compound 0.3 µM): 38.7% | viability, T/C (second compound 0.00316 µM, first compound 0.949 µM): 28.2% | viability, T/C (second compound 0.00316 µM, first compound 3 µM): 20.1% | viability, T/C (second compound 0.01 µM, first compound 0.00949 µM): 79.3% | viability, T/C (second compound 0.01 µM, first compound 0.03 µM): 65.1% | viability, T/C (second compound 0.01 µM, first compound 0.0949 µM): 45.5% | viability, T/C (second compound 0.01 µM, first compound 0.3 µM): 29.7% | viability, T/C (second compound 0.01 µM, first compound 0.949 µM): 28.5% | viability, T/C (second compound 0.01 µM, first compound 3 µM): 16.8% | viability, T/C (second compound 0.0316 µM, first compound 0.00949 µM): 71.3% | viability, T/C (second compound 0.0316 µM, first compound 0.03 µM): 59.1% | viability, T/C (second compound 0.0316 µM, first compound 0.0949 µM): 38.2% | viability, T/C (second compound 0.0316 µM, first compound 0.3 µM): 28.8% | viability, T/C (second compound 0.0316 µM, first compound 0.949 µM): 19.2% | viability, T/C (second compound 0.0316 µM, first compound 3 µM): 12.5% | viability, T/C (second compound 0.1 µM, first compound 0.00949 µM): 54.1% | viability, T/C (second compound 0.1 µM, first compound 0.03 µM): 39.2% | viability, T/C (second compound 0.1 µM, first compound 0.0949 µM): 27.6% | viability, T/C (second compound 0.1 µM, first compound 0.3 µM): 18.6% | viability, T/C (second compound 0.1 µM, first compound 0.949 µM): 12.5% | viability, T/C (second compound 0.1 µM, first compound 3 µM): 5.57% | viability, T/C (second compound 0.316 µM, first compound 0.00949 µM): 34.1% | viability, T/C (second compound 0.316 µM, first compound 0.03 µM): 24.5% | viability, T/C (second compound 0.316 µM, first compound 0.0949 µM): 15.1% | viability, T/C (second compound 0.316 µM, first compound 0.3 µM): 10.6% | viability, T/C (second compound 0.316 µM, first compound 0.949 µM): 6.3% | viability, T/C (second compound 0.316 µM, first compound 3 µM): 4.03% | viability, T/C (second compound 1 µM, first compound 0.00949 µM): 15.6% | viability, T/C (second compound 1 µM, first compound 0.03 µM): 14.3% | viability, T/C (second compound 1 µM, first compound 0.0949 µM): 9.32% | viability, T/C (second compound 1 µM, first compound 0.3 µM): 5.03% | viability, T/C (second compound 1 µM, first compound 0.949 µM): 4.84% | viability, T/C (second compound 1 µM, first compound 3 µM): 2.93%
